From article PMC9683047, “Design, synthesis and biological evaluation of 4-aminoquinoline derivatives as receptor-interacting protein kinase 2 (RIPK2) inhibitors” (Journal of Enzyme Inhibition and Medicinal Chemistry, 2022)

What was measured:
[1] = biological target: T1, IGF-1R(h) (Homo sapiens, UniProt P08069); test: Kinase selectivity panel: IGF-1R; assay type: biochemical; conditions: 1 µM
T1 construct: purchased Eurofins (Millipore) KinaseProfiler Diversity Panel
Procedure: (§1) To confirm the anti-inflammatory effect was caused by RIPK2 inhibition, compound 14 was subjected to kinase selectivity evaluation (Figure 4). Kinase selectivity profile of compound 14 as shown by the diversity kinase Panel screen against 70 kinases assayed at 1 µM. Among all tested 70 kinases, only five were inhibited over 90% at 1 µM including Fyn, Lyn, BTK, Abl and RIPK2. Three kinases including KDR, CDK9 and LOK were inhibited 50–90% at 1 µM.

[2] = biological target: T2, JAK2(h) (Homo sapiens, UniProt O60674); test: Kinase selectivity panel: JAK2; assay type: biochemical; conditions: 1 µM
T2 construct: purchased Eurofins (Millipore) KinaseProfiler Diversity Panel
T2 sequence (O60674 whole entry): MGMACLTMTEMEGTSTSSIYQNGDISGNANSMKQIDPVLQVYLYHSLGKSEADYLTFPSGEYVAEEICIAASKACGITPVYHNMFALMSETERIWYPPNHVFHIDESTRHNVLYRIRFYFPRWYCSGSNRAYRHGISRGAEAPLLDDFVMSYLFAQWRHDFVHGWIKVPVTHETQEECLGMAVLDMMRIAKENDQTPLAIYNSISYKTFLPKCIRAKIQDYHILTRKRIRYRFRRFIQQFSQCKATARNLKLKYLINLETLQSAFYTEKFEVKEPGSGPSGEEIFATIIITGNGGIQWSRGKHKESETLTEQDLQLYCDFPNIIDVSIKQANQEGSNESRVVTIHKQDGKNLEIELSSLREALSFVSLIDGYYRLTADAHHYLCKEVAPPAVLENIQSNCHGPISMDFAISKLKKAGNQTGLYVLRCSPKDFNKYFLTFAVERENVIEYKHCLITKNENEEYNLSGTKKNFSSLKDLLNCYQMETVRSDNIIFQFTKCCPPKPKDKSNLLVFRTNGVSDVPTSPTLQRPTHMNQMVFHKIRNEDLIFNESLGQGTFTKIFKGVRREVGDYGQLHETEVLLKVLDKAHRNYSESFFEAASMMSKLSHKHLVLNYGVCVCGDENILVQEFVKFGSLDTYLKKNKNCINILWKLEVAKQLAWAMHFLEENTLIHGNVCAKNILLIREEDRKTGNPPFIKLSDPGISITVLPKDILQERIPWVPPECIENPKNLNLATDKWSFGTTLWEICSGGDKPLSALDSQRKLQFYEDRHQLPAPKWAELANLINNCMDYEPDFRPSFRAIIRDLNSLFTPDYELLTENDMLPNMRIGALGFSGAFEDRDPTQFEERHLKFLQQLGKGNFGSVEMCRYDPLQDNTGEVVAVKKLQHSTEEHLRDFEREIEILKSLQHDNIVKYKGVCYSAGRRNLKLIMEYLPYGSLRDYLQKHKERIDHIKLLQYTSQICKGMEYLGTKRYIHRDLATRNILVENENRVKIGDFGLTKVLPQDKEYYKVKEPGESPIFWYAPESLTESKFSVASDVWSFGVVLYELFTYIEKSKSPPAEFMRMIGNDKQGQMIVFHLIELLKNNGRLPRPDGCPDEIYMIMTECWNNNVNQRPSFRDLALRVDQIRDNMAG
Procedure: as §1

[3] = biological target: T3, PKA(h) (Homo sapiens, UniProt P17612); test: Kinase selectivity panel: PKA; assay type: biochemical; conditions: 1 µM
T3 construct: purchased Eurofins (Millipore) KinaseProfiler Diversity Panel
Procedure: as §1

[4] = biological target: T4, CK2α2(h) (Homo sapiens, UniProt P19784); test: Kinase selectivity panel: CK2α2; assay type: biochemical
T4 construct: purchased Eurofins (Millipore) KinaseProfiler Diversity Panel
T4 sequence (P19784 whole entry): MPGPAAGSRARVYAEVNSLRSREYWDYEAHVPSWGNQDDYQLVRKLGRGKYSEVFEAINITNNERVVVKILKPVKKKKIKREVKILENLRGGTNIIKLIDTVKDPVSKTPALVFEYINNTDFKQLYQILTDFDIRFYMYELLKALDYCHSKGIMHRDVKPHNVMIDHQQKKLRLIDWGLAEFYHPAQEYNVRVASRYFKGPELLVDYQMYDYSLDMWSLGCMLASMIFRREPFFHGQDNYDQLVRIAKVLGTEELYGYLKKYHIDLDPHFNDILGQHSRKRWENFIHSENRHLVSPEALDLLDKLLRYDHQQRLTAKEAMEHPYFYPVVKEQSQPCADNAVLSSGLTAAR
Procedure: as §1

[5] = biological target: T5, PAK2(h) (Homo sapiens, UniProt Q13177); test: Kinase selectivity panel: PAK2; assay type: biochemical; conditions: 1 µM
T5 construct: purchased Eurofins (Millipore) KinaseProfiler Diversity Panel
Procedure: as §1

[6] = biological target: T6, CDK2/cyclinA(h) (Homo sapiens, UniProt P24941); test: Kinase selectivity panel: CDK2/cyclinA; assay type: biochemical
T6 construct: purchased Eurofins (Millipore) KinaseProfiler Diversity Panel
Procedure: as §1

[7] = biological target: T7, Rse(h) (Homo sapiens, UniProt Q06418); test: Kinase selectivity panel: Rse; assay type: biochemical; conditions: 1 µM
T7 construct: purchased Eurofins (Millipore) KinaseProfiler Diversity Panel
Procedure: as §1

[8] = biological target: T8, BTK(R28H)(h) (Homo sapiens, UniProt Q06187, R28H); test: Kinase selectivity panel: BTK(R28H); assay type: biochemical; conditions: 1 µM
T8 construct: purchased Eurofins (Millipore) KinaseProfiler Diversity Panel
Procedure: as §1

[9] = biological target: T9, RIPK1 (Homo sapiens, UniProt Q13546); test: RIPK1 inhibition rate at 1 µM; assay type: biochemical
T9 sequence (Q13546 1-671): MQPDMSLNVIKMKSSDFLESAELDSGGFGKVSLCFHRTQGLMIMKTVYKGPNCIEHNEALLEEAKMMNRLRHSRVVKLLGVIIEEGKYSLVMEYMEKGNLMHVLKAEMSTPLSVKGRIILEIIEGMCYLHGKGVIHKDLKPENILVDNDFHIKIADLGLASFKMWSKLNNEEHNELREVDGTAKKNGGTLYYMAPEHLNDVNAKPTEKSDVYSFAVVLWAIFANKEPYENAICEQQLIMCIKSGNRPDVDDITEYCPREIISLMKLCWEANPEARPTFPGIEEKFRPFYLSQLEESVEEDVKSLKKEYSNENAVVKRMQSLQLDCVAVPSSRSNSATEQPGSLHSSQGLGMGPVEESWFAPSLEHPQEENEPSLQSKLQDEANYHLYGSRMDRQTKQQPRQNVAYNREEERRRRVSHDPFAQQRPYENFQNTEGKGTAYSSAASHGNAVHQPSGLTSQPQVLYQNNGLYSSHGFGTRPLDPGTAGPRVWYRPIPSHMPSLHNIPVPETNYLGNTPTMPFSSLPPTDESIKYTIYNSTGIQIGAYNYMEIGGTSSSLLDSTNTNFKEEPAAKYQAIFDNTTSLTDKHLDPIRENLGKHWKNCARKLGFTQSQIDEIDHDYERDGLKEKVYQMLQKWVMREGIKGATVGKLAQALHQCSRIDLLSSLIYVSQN
Procedure: Table 4. Selectivity, ClogP and LipE of compound 14, 15, 21, 32, 36. | column: RIPK1 IR@1µM (%)

[10] = biological target: T10, MSK2(h) (Homo sapiens, UniProt O75676); test: Kinase selectivity panel: MSK2; assay type: biochemical
T10 construct: purchased Eurofins (Millipore) KinaseProfiler Diversity Panel
Procedure: as §1

[11] = biological target: T11, Plk3(h) (Homo sapiens, UniProt Q9H4B4); test: Kinase selectivity panel: Plk3; assay type: biochemical; conditions: 1 µM
T11 construct: purchased Eurofins (Millipore) KinaseProfiler Diversity Panel
Procedure: as §1

[12] = biological target: T12, JAK1(h) (Homo sapiens, UniProt P23458); test: Kinase selectivity panel: JAK1; assay type: biochemical
T12 construct: purchased Eurofins (Millipore) KinaseProfiler Diversity Panel
Procedure: as §1

[13] = biological target: T13, AO oxidase (Homo sapiens, UniProt Q06278); test: AO oxidative metabolism in human liver cytosol; assay type: in vitro ADME; conditions: human liver cytosol incubation; inhibitors raloxifene and menadione
T13 construct: could undergo mono oxidative metabolism in the human liver cytosol incubation system; from tissue; host or cells: human liver cytosol
Procedure: However, we have done experiment on AO oxidative metabolism of compound 14 and P5. Both compound 14 and P5 could undergo mono oxidative metabolism in the human liver cytosol incubation system.

[14] = biological target: T14, MEK1(h) (Homo sapiens, UniProt Q02750); test: Kinase selectivity panel: MEK1; assay type: biochemical; conditions: 1 µM
T14 construct: purchased Eurofins (Millipore) KinaseProfiler Diversity Panel
Procedure: as §1

[15] = biological target: T15, IRAK4(h) (Homo sapiens, UniProt Q9NWZ3); test: Kinase selectivity panel: IRAK4; assay type: biochemical
T15 construct: purchased Eurofins (Millipore) KinaseProfiler Diversity Panel
Procedure: as §1

[16] = biological target: T16, CDK1/cyclinB(h) (Homo sapiens, UniProt P06493); test: Kinase selectivity panel: CDK1/cyclinB; assay type: biochemical
T16 construct: purchased Eurofins (Millipore) KinaseProfiler Diversity Panel
Procedure: as §1

[17] = biological target: T17, TYK2(h) (Homo sapiens, UniProt P29597); test: Kinase selectivity panel: TYK2; assay type: biochemical; conditions: 1 µM
T17 construct: purchased Eurofins (Millipore) KinaseProfiler Diversity Panel
Procedure: as §1

[18] = biological target: T18, EphB4(h) (Homo sapiens, UniProt P54760); test: Kinase selectivity panel: EphB4; assay type: biochemical
T18 construct: purchased Eurofins (Millipore) KinaseProfiler Diversity Panel
Procedure: as §1

[19] = biological target: T19, CHK1(h) (Homo sapiens, UniProt O14757); test: Kinase selectivity panel: CHK1; assay type: biochemical
T19 construct: purchased Eurofins (Millipore) KinaseProfiler Diversity Panel
Procedure: as §1

[20] = biological target: T20, PI3 Kinase (p120g)(h) (Homo sapiens, UniProt P48736); test: Kinase selectivity panel: PI3 Kinase (p120g); assay type: biochemical; conditions: 1 µM
T20 construct: purchased Eurofins (Millipore) KinaseProfiler Diversity Panel
Procedure: as §1

[21] = biological target: T21, Pim-1(h) (Homo sapiens, UniProt P11309); test: Kinase selectivity panel: Pim-1; assay type: biochemical
T21 construct: purchased Eurofins (Millipore) KinaseProfiler Diversity Panel
T21 sequence (P11309 whole entry): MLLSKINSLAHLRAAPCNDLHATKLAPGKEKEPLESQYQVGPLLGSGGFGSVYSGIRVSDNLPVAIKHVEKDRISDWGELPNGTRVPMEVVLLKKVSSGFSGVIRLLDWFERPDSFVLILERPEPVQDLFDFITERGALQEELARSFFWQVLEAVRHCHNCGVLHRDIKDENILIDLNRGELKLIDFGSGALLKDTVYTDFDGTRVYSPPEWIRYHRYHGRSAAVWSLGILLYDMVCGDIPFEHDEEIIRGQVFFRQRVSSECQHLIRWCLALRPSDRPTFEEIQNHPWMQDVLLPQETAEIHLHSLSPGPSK
Procedure: as §1

[22] = biological target: T22, Abl(h) (Homo sapiens, UniProt P00519); test: Kinase selectivity panel: Abl; assay type: biochemical
T22 construct: purchased Eurofins (Millipore) KinaseProfiler Diversity Panel
T22 sequence (P00519 whole entry): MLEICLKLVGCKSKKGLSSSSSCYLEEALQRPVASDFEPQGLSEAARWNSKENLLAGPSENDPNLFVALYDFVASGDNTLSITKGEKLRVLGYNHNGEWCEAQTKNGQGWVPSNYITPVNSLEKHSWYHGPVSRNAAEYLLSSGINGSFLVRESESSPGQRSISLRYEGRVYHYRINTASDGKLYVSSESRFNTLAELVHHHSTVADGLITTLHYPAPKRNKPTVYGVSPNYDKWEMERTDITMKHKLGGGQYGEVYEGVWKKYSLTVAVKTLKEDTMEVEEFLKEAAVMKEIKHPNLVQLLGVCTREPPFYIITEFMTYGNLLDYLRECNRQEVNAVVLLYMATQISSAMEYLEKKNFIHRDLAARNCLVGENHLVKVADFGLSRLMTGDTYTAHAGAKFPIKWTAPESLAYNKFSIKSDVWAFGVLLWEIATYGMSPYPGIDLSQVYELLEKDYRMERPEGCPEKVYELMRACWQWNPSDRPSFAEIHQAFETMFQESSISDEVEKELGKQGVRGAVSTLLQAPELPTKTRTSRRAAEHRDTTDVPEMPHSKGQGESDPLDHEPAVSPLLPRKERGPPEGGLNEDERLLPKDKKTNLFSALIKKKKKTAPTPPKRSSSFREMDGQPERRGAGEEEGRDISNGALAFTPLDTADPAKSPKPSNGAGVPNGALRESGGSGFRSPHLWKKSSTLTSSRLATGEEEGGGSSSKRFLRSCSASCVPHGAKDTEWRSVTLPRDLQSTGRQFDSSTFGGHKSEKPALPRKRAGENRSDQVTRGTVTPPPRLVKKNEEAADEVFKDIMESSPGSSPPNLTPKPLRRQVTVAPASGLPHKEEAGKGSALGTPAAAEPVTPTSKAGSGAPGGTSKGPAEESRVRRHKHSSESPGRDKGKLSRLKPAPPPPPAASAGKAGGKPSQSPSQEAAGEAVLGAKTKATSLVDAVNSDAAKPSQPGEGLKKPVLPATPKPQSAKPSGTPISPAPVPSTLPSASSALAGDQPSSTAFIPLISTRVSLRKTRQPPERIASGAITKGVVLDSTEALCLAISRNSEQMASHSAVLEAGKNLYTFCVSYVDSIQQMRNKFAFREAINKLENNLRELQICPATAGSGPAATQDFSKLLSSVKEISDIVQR
Procedure: as §1

[23] = biological target: T23, RIPK2 (Homo sapiens, UniProt O43353); test: Lipophilic ligand efficiency (LipE); conditions: LipE = pIC50 − ClogP
T23 construct: purchased Promega
T23 sequence (O43353 whole entry): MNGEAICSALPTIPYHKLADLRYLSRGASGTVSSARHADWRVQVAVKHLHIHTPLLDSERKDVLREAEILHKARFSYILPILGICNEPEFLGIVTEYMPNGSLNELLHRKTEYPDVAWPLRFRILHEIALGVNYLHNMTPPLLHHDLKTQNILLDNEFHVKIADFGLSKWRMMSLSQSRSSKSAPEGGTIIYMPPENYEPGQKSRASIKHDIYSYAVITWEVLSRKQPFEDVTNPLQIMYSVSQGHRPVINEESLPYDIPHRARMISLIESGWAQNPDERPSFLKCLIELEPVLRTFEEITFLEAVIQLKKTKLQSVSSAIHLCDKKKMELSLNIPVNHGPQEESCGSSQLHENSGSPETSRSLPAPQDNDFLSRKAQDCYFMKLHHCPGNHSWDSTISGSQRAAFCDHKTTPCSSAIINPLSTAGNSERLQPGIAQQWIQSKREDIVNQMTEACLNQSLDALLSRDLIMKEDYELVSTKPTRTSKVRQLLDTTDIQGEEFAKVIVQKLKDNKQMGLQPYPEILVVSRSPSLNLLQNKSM

[24] = biological target: T24, ASK1(h) (Homo sapiens, UniProt Q99683); test: Kinase selectivity panel: ASK1; assay type: biochemical
T24 construct: purchased Eurofins (Millipore) KinaseProfiler Diversity Panel
Procedure: as §1

[25] = biological target: T25, CaMKI(h) (Homo sapiens, UniProt Q14012); test: Kinase selectivity panel: CaMKI; assay type: biochemical; conditions: 1 µM
T25 construct: purchased Eurofins (Millipore) KinaseProfiler Diversity Panel
Procedure: as §1

[26] = biological target: T26, SAPK2a(h) (Homo sapiens, UniProt Q16539); test: Kinase selectivity panel: SAPK2a; assay type: biochemical
T26 construct: purchased Eurofins (Millipore) KinaseProfiler Diversity Panel
Procedure: as §1

[27] = biological target: T27, AMPKα1(h) (Homo sapiens, UniProt Q13131); test: Kinase selectivity panel: AMPKα1; assay type: biochemical
T27 construct: purchased Eurofins (Millipore) KinaseProfiler Diversity Panel
Procedure: as §1

T1 sequence (P08069 31-1367): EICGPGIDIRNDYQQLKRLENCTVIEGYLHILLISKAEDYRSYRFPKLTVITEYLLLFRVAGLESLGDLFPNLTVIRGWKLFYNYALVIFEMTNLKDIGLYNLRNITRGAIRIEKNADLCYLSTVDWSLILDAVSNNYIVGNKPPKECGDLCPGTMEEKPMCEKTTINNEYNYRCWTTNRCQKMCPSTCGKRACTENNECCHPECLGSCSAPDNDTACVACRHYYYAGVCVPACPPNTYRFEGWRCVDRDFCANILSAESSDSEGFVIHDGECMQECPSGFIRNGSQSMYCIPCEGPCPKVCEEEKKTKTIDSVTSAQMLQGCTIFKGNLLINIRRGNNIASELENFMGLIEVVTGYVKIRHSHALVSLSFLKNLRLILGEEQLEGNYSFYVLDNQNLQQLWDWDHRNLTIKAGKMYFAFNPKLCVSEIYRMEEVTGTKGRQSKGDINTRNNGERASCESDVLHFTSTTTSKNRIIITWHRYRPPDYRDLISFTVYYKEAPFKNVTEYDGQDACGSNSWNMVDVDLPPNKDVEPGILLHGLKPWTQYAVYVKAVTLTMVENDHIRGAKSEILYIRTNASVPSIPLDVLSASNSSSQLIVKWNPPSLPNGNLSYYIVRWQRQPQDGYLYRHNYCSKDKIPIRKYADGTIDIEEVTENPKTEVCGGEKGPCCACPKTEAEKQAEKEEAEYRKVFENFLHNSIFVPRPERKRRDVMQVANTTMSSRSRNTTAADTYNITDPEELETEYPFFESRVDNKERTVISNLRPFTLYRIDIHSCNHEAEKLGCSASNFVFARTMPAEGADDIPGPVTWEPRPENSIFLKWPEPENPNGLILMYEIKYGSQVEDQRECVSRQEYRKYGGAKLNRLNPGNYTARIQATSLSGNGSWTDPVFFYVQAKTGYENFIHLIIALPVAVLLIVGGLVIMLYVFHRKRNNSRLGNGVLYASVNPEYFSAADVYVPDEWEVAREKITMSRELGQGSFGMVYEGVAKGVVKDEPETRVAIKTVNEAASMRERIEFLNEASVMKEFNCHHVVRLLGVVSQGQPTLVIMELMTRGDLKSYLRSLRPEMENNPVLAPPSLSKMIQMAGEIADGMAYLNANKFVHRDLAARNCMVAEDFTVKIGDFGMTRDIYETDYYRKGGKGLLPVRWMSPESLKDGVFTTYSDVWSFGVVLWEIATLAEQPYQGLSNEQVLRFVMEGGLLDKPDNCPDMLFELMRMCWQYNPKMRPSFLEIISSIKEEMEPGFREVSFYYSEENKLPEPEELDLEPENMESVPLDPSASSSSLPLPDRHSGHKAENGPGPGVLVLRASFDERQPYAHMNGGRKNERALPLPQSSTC

Structure (SMILES): c1cc(-c2ccc3nccc(Nc4ccc5scnc5c4)c3c2)ccn1 [Compound 14, N-(6-(pyridin-4-yl)quinolin-4-yl)benzo[d]thiazol-5-amine]
- remaining IGF-1R activity (% of control) [1]: 109
- remaining kinase activity (%) [2]: 93
- Remaining kinase activity (% of control) [3]: 117
- Remaining CK2α2 kinase activity (%) with compound 14 at 1 µM [4]: 104
- percent remaining kinase activity [5]: 100
- CDK2/cyclinA remaining activity (%) with compound 14 at 1 µM [6]: 78
- Remaining kinase activity (% of control) [7]: 121
- percent remaining kinase activity [8]: 63
- RIPK1 IR@1µM (%) [9]: <1%
- MSK2 remaining kinase activity (% of control) with compound 14 at 1 µM [10]: 107
- remaining Plk3 kinase activity (% of control) [11]: 86
- JAK1 remaining kinase activity with compound 14 at 1 µM (% of control) [12]: 105
- AO oxidase substrate [13]: metabolic substrates of AO oxidase
- % remaining MEK1 activity [14]: 105
- Percent remaining IRAK4 activity with compound 14 at 1 µM [15]: 107
- CDK1/cyclinB remaining activity (% of control) with compound 14 at 1 µM [16]: 90
- kinase activity remaining (% of control) [17]: 108
- EphB4 remaining activity (%) with compound 14 at 1 µM [18]: 96
- CHK1 remaining activity (% of control) at 1 µM [19]: 100
- Remaining kinase activity (% of control) [20]: 79
- remaining kinase activity (% of control) with compound 14 at 1 µM [21]: 78
- Abl remaining activity (% of control) ([22]; 1 µM): 9
- inhibition at 1 µM ([22]; at 1 µM): > 90%
- LipE [23]: 4.40
- ASK1 remaining activity (% of control) with compound 14 at 1 µM [24]: 87
- percent kinase activity remaining [25]: 97
- % remaining SAPK2a activity with compound 14 at 1 µM [26]: 54
- Remaining kinase activity (%) with compound 14 at 1 µM [27]: 103
